In ChEMBL document CHEMBL5154711, “Discovery of Novel Sphingosine-1-Phosphate-1 Receptor Agonists for the Treatment of Multiple Sclerosis” (J Med Chem, 2022):

How the values were obtained:
in vitro [1] = conditions: mouse, microsomes
in vitro [2] = conditions: human, microsomes
in vivo [3] = conditions: rat, po, 10 mg/kg
in vivo [4] = conditions: rat, iv, 1 mg/kg
in vivo [5] = conditions: rat, po, 10 mg/kg; remark: listed apart in the source
in vivo [6] = conditions: rat, iv, 1 mg/kg; remark: listed apart in the source
in vivo [7] = conditions: rat, iv, 10 mg/kg
in vivo [8] = conditions: rat, iv, 1 mg/kg; remark: listed apart in the source
in vivo [9] = conditions: rat, iv, 1 mg/kg; remark: listed apart in the source
in vivo [10] = conditions: rat, po, 10 mg/kg; remark: listed apart in the source
in vivo [11] = conditions: rat, po, 10 mg/kg; remark: listed apart in the source
in vitro [12] = conditions: rat, liver microsomes

Structure (SMILES)	remaining at 0.5 h, 1 µM (in vitro [1])	remaining at 0.5 h, 1 µM (in vitro [2])	further results
COC(=O)C1CN(Cc2ccc(-c3cn(-c4ccc(OC(C)C)c(Cl)c4)nn3)cc2)C1	28.8%	24.1%	–
CC(C)Oc1ccc(C2CC(c3ccc(CN4CCC(C(=O)O)CC4)cc3)=NO2)cc1Cl (stereo not given)	84.5%	73.5%	–
CC(C)(C)c1ccc(C2CC(c3ccc(CN4CC(C(=O)[O-])C4)cc3)=NO2)cc1.[Na+] (stereo not given)	96.7%	93.8%	Tmax (in vivo [3]): 2.3 h; AUC(0-inf) (in vivo [4]): 1160 ng·h/mL; bioavailability (in vivo [5]): 44.9%; Vd (in vivo [6]): 2.6 L/kg; AUC(0-inf) (in vivo [7]): 5190 ng·h/mL; clearance (in vivo [8]): 13.1 mL/min/kg; half-life (in vivo [9]): 2.4 h; Cmax (in vivo [10]): 1070 ng/mL; half-life (in vivo [11]): 3.1 h; remaining at 0.5 h, 1 µM (in vitro [12]): 95.1%

The next lines start with results.

remaining at 0.5 h, 1 µM (in vitro [1])	remaining at 0.5 h, 1 µM (in vitro [2])	Structure (SMILES)	further results
> 99%	98.5%	CC(C)Oc1ccc(-n2cc(-c3ccc(CN4CC(C(=O)O)C4)cc3)nn2)cc1Cl	–
19%	23.2%	COC(=O)C1CN(Cc2ccc(-n3cc(-c4ccc(OC(C)C)c(Cl)c4)nn3)cc2)C1	–
